Measurements as given in patent US10786503B2, “Treatment of adipocytes” (Melior Pharmaceuticals I, Inc., priority 2017, dated 2020).

Columns and labels:
[1] = test system: Compound 102-induced UCP1 expression; assay: Effect of inhibitors on Compound 102-induced UCP1 expression; type: cell-based, human; conditions: over 4 days; LY294002 20 NM, H89 20 μM; FIG. 9
Method: (§1) Human adipocyte precursor cells isolated from subcutaneous abdominal fat were purchased from LaCell, LLC, New Orleans, La. Cells were seeded and grown to confluence in DMEM/F12 with 10% heat inactivated FBS. Differentiation to mature adipocytes was induced in medium composed of 70% DMEM and 30% DMEMF12 supplemented with 3% FBS, 1 μM dexamethasone (Sigma D4902), […] biotin (Sigma B4639), 100 nM insulin (Sigma 15500), 20 μM pantothenate (Sigma P5155), 5 μM rosiglitazone (AK Scientific F325) and […] (Sigma 15879) for four days. Cells were maintained in medium composed of 70% DMEM and 30% DMEMF12 supplemented with 3% FBS, 1 μM dexamethasone, 33 μM biotin, 100 nM insulin, and 20 NM pantothenate for seven days before experimental treatment.
Total RNA was isolated from adipocyte cultures grown in 12-well plates using Trizol and Qiagen RNAeasy kits. Reverse transcriptase and PCR were conducted in one reaction with the reverse PCR primer priming cDNA synthesis using SuperScript® III Platinum® One-Step Quantitative RT-PCR System with Rox from Invitrogen (11745). Predesigned Taqman primer-probe sets were purchased from Applied Biosystems for the following human transcript sequences: UCP1 (Hs249211), PPARGC1α (HS527078), PPARU (Hs103110), CPT1b (Hs439777), and GLUT4/SLC2A4 (Hs380691). Aplicons were designed to span an intron-exon junction to avoid amplification of genomic sequences. […]

[2] = Phase 2a clinical trial of Compound 102 (fasting plasma glucose, body weight); type: in vivo, human
Method: This Phase 2a clinical trial was conducted in the U.S. (103 subjects) and Korea (27 subjects). […] Subjects were treated with one of four active doses (100 mg once-daily (qd), 100 mg twice-daily (bid), 200 mg qd, or 200 mg bid) of Compound 102 or placebo for 4 weeks after having 3 weeks of placebo run-in. […] Body weights, as secondary endpoints, were measured at Day 1 and Day 29 and at the follow-up visit 1 week after treatment stopped, at Day 35. […] The effect was most pronounced in the U.S. subjects and in the 100 qd dose group.

human adipocytes = assay: Beige adipocyte gene expression by RT-PCR in primary cultured human adipocytes; type: cell-based
Method: as §1
A solution of 10 mM Compound 102 was prepared in DMSO and diluted to 60 μM or 30 μM in maintenance medium without dexamethasone for cell treatment. […]
Total RNA was isolated from adipocyte cultures grown in 12-well plates using Trizol and Qiagen RNAeasy kits. Reverse transcriptase and PCR were conducted in one reaction with the reverse PCR primer priming cDNA synthesis using SuperScript® III Platinum® One-Step Quantitative RT-PCR System with Rox from Invitrogen (11745). Predesigned Taqman primer-probe sets were purchased from Applied Biosystems for the following human transcript sequences: UCP1 (Hs249211), PPARGC1α (HS527078), PPARU (Hs103110), CPT1b (Hs439777), and GLUT4/SLC2A4 (Hs380691). Aplicons were designed to span an intron-exon junction to avoid amplification of genomic sequences. Each sample RT-PCR assay was conducted in duplicate.

[3] = test system: primary cultured human adipocytes; assay: GLUT4 and UCP1 protein expression in primary cultured human adipocytes; type: cell-based; conditions: 7-day treatment period
Method: as §1
A solution of 10 mM Compound 102 was prepared in DMSO and diluted to 60 μM or 30 μM in maintenance medium without dexamethasone for cell treatment. In some experiments, cells were treated with 20 μM menthol (Sigma M2772).

[4] = test system: UCP-1 adipose tissue protein; assay: UCP-1 adipose tissue protein in db/db mice (Western blot densitometry); type: in vivo; conditions: 100 mg/kg qd for 3 weeks, tissue 4 hours after last dose, FIG. 10
Method: Adipose tissue was collected 4 hours after the last dose of Compound 102.

[5] = Rodent oral glucose tolerance test; type: in vivo; conditions: FIG. 13
Source text: In contrast, menthol potentiates the insulin sensitizing action of Compound 102 in a rodent oral glucose tolerance test.

[6] = human adipocytes, day 4, FIG. 3

COc1cc(CN(CCN)C(=O)OC(C)c2ccccc2)ccc1OCc1ccccc1 (centres unmarked) [PBMC]
Compound 102-induced UCP1 mRNA in presence of inhibitor [1]: reduced UCP1 mRNA to levels of unstimulated controls or lower

O=S(=O)(NCCNC/C=C/c1ccc(Br)cc1)c1cccc2cnccc12 [Compound H89]
Compound 102-induced UCP1 mRNA in presence of inhibitor [1]: reduced UCP1 mRNA to levels of unstimulated controls or lower

Cc1cccc(Oc2c[nH]c(=O)[nH]c2=O)c1 [Compound 102, 5-(m-tolyloxy)pyrimidine-2,4(1H,3H)-dione]
body weight loss over the 4-week treatment period ([2]; Day 1 to Day 29, secondary endpoint): statistically significant improvements in body weight loss
body weight 1 week after treatment (Day 35) compared to Day 29 ([2]; follow-up 1 week after treatment stopped, FIG. 2): all groups except for the 200 mg bid group showed continued loss
fasting plasma glucose (FPG) ([2]; subjects with HbA1c 7-10%, 100 mg qd, 100 mg bid, 200 mg qd or 200 mg bid for 4 weeks, FIG. 1): progressive reduction
GLUT4 mRNA (human adipocytes; 7-day treatment period, FIG. 4): continued to increase
UCP1 mRNA (human adipocytes; 7-day treatment period, FIG. 4): continued to increase
expression of the UCP1 activator PGC-1β (human adipocytes; FIG. 7): induced
expression of the UCP1 activator PPARα (human adipocytes; FIG. 7): induced
expression of TRPM8 menthol receptor mRNA (human adipocytes; FIG. 8): induced
expression of Adipose Triglyceride Lipase (ATGL) (human adipocytes; [6]): significant increases
expression of Carnitine palmitoyltransferase-Ib (CPT-1b) (human adipocytes; [6]): significant increases
expression of GLUT4 (human adipocytes; [6]): significant increases
expression of Transient Potential Melastatin 8 Receptor (TRPM8R) (human adipocytes; [6]): significant increases
expression of UCP-1 (human adipocytes; [6]): significant increases
expression of GLUT4 protein ([3]; FIG. 5): continued to exist
expression of UCP1 protein ([3]; FIG. 6): continued to exist
levels of UCP-1 adipose tissue protein [4]: Increased levels

CC1CCC(C(C)C)C(O)C1 (centres unmarked) [menthol, reference compound]
UCP1 expression (human adipocytes; 7 day treatment, 30 μM menthol, 30 NM Compound 102, versus Compound 102 alone, FIG. 12 panel a): did not induce expression
insulin sensitization or glycemic control [5]: does effect insulin sensitization or glycemic control
